Laboratory results taken from patent publication US20040121965A1, “Method of treating resistant tumors” (Wyeth Holdings Corporation, priority 2002, published 2004).
Several values for one entry are separate records, joined by “and”; a condition that tells them apart may be missing. Identical values can stand only once. Like-named read-outs stand apart in the source and are kept apart here. Marks after values point to notes of the source that are not given here.

What was measured:
[1] = system: KB-PTX-15+099 tumor xenografts; experiment: Growth of tumors in nude mice, KB-PTX-15+099 xenograft; conditions: days 1,8,15
[2] = system: A549; experiment: Cell survival assay (SRB), A549; assay type: cell-based; conditions: Homo sapiens
Text: Cells lines with previously known mechanisms of resistance. […] Res. 8: 207-218,1996); KB-3-1 (parental derived from an epidermoid carcinoma), KB-8.5, KB-V1 (Akiyama S-I, Fojo A, Hanover J A, Pastan I, Gottesman M M. Isolation and genetic characterization of human KB cell lines resistant to multiple drugs. Somatic Cell Mol. Gen., 11: 117-126,1985; Shen D-W, Cardarelli C, Hwang J, Cornwell M, Richert N, Ishii S, Pastan I, Gottesman MM. […] J. Biol. Chem., 261: 7762-7770, 1986); and HL-60 (parental derived from human leukemia) and HL60/AR (McGrath T., Center M. S. Adriamycin resistance in HL60 cells in the absence of detectable P-glycoprotein. Biochem. Res. Commun., 145:1171-1176,1987); A549 and A549.EpoB40 (He L., Yang C.-P.H., Horwitz S. B. Mutations in p-tubulin map to domains involved in regulation of microtubule stability in epothilone-resistant cell lines. Molecular Cancer Therapeutics. 1: 3-10, 2001). HCT-15 human colon carcinoma and DLD-1 human colon carcinoma are obtained from American Tissue Culture Collection. The MX-1W carcinoma is a Wyeth variant orginally obtained as MX-1 breast carcinoma from the National Cancer Institute. Cell lines selected for resistance to Representative Example 129. […]
2.2. […] Absorbance is read on a Victor V multi-label plate reader (Perkin Elmer, Gaithersburg, Md.).

[3] = system: A549.EpoB40; assay type: cell-based; conditions: vs A549; below 1 = sensitive
Text: (§1) Cells lines with previously known mechanisms of resistance. […] Res. 8: 207-218,1996); KB-3-1 (parental derived from an epidermoid carcinoma), KB-8.5, KB-V1 (Akiyama S-I, Fojo A, Hanover J A, Pastan I, Gottesman M M. Isolation and genetic characterization of human KB cell lines resistant to multiple drugs. Somatic Cell Mol. Gen., 11: 117-126,1985; Shen D-W, Cardarelli C, Hwang J, Cornwell M, Richert N, Ishii S, Pastan I, Gottesman MM. […] J. Biol. Chem., 261: 7762-7770, 1986); and HL-60 (parental derived from human leukemia) and HL60/AR (McGrath T., Center M. S. Adriamycin resistance in HL60 cells in the absence of detectable P-glycoprotein. Biochem. Res. Commun., 145:1171-1176,1987); A549 and A549.EpoB40 (He L., Yang C.-P.H., Horwitz S. B. Mutations in p-tubulin map to domains involved in regulation of microtubule stability in epothilone-resistant cell lines. Molecular Cancer Therapeutics. 1: 3-10, 2001). HCT-15 human colon carcinoma and DLD-1 human colon carcinoma are obtained from American Tissue Culture Collection. The MX-1W carcinoma is a Wyeth variant orginally obtained as MX-1 breast carcinoma from the National Cancer Institute. Cell lines selected for resistance to Representative Example 129. KB-3-1 cells are selected for resistance to Example 129 by chronically exposing cells to increasing concentrations of Example 129.
2.2. Cell Survival Assay: Standard Pharmacological Test Procedure. The concentration of candidate inhibitor required to inhibit 50% of cell growth (IC50) is done according to previously reported methods. […] Compounds are serially diluted into media as 2× stocks and 100 μl added to cells in duplicate. Compounds are incubated with cells for 3 days. At the end of the incubation period the sulforhodamine B (SRB) assay, which measures protein content as an assessment of cell survival, is performed as described previously (Skehan P, Storeng R, Scudiero D, Monks A, McMahon J, Vistica D, Warren J T, Bokesch H, Kenney S, Boyd MR. New calorimetric cytotoxicity assay for anticancer-drug screening. J Natl Cancer Inst 1990 Jul 4;82(13):1107-12) with some modification as follows. For KB-3-1 cells with 20% FCS, media is gently decanted and replaced with 200 μl of serum-free media mixed with cold 50% TCA for a final concentration of 10% TCA. The plates are incubated for 1 hr at 4° C., followed by washing 5 times in cold distilled water, then air dried overnight. The fixed cells are stained for 10 min with 80 μl of 0.04% SRB solution prepared in 1% glacial acetic acid. Stain is discarded and plates washed 5 times in 1% glacial acetic acid, then air-dried until completely dry. […] Absorbance is read on a Victor V multi-label plate reader (Perkin Elmer, Gaithersburg, Md.).

[4] = system: KB-8-5 (MDR1+); experiment: Cell survival assay (SRB), KB-8-5 (MDR1+); conditions: for IC50: Homo sapiens
[5] = system: PC3MM2; experiment: Cell survival assay (SRB), PC3MM2; assay type: cell-based; conditions: Homo sapiens
Experimental: (§2) 2.2. Cell Survival Assay: Standard Pharmacological Test Procedure. […] Compounds are incubated with cells for 3 days.

[6] = system: Human Melanoma Carcinoma Lox; conditions: for % T/C on day 7 / % T/C on day 12: Lox, days 1,5,9; for Activity in nude mice animal model (% T/C @ MTD on days 11-15) LOX: staged LOX xenograft, at MTD ('<': MTD not achieved); for inhibition of growth of Lox melanoma xenografts: day 14, P<0.01
[7] = system: Panc1; experiment: Cell survival assay (SRB), Panc1; assay type: cell-based; conditions: Homo sapiens, PANC-1, 72 h
Experimental: as §2

[8] = system: S1-M1-3.2 (MXR); experiment: Cell survival assay, S1-M1-3.2 (MXR); assay type: cell-based, human; conditions: for IC50: Homo sapiens, read-out: S1-M1-3.2 (MXR) IC50, nM (N)
Text: as §1
(§3) 2.2. Cell Survival Assay: Standard Pharmacological Test Procedure. The concentration of candidate inhibitor required to inhibit 50% of cell growth (IC50) is done according to previously reported methods. […] Compounds are serially diluted into media as 2× stocks and 100 μl added to cells in duplicate. Compounds are incubated with cells for 3 days. At the end of the incubation period the sulforhodamine B (SRB) assay, which measures protein content as an assessment of cell survival, is performed as described previously (Skehan P, Storeng R, Scudiero D, Monks A, McMahon J, Vistica D, Warren J T, Bokesch H, Kenney S, Boyd MR. New calorimetric cytotoxicity assay for anticancer-drug screening. J Natl Cancer Inst 1990 Jul 4;82(13):1107-12) with some modification as follows. For KB-3-1 cells with 20% FCS, media is gently decanted and replaced with 200 μl of serum-free media mixed with cold 50% TCA for a final concentration of 10% TCA. The plates are incubated for 1 hr at 4° C., followed by washing 5 times in cold distilled water, then air dried overnight. The fixed cells are stained for 10 min with 80 μl of 0.04% SRB solution prepared in 1% glacial acetic acid. Stain is discarded and plates washed 5 times in 1% glacial acetic acid, then air-dried until completely dry. Stained cell product is dissolved in 150 μl of 10 mM Trizma Base and placed on a shaker for 20 minutes until fully dissolved. Absorbance is read on a Victor V multi-label plate reader (Perkin Elmer, Gaithersburg, Md.).
J. Cell Science,113: 2011-2021, 2000). It was unknown whether the hemiasterlin family of peptides interact with these drug pumps.

[9] = system: KB-8.5 tumor; experiment: Growth of tumors in nude mice, KB-8-5 xenograft; assay type: in vivo; conditions: days 1,5,9
Text: 2.4. Growth of Tumors in Nude Mice.

[10] = system: HCT-15; experiment: Cell survival assay (SRB), HCT-15; assay type: cell-based; conditions: Homo sapiens, HCT-15, 72 h, 3 days
Text: as §1, §3

[11] = system: Moser; experiment: Cell survival assay (SRB), Moser; assay type: cell-based; conditions: 72 h
Experimental: as §2

[12] = LOX xenograft model, IV days 1, 5 and 9

`CC(=O)O[C@H]1C(=O)[C@@]2(C)[C@H]([C@H](OC(=O)c3ccccc3)[C@]3(O)C[C@H](OC(=O)[C@H](O)[C@@H](NC(=O)c4ccccc4)c4ccccc4)C(C)=C1C3(C)C)[C@]1(OC(C)=O)CO[C@@H]1C[C@@H]2O` [paclitaxel, reference compound] was tested, and the “% T/C on day 6” value ([1]; paclitaxel 60 mg/kg IV) was 103%, the “% T/C on day 9” value ([1]; paclitaxel 60 mg/kg IV) was 93% and the “% T/C on day 13” value ([1]; paclitaxel 60 mg/kg IV) was 89%. For the same compound, the “% T/C on day 16” value ([1]; paclitaxel 60 mg/kg IV) was 87%, the “% T/C on day 20” value ([1]; paclitaxel 60 mg/kg IV) was 90% and the IC50 ([2]; 72 h, A549, NSCLC, 3 days, SRB staining, read-out: IC50) was 8.8 ± 3.6 nM. For the same compound, the “resistance of A549.EpoB40 cells” value [3] was 13 fold, the IC50 ([4]; MDR1, 72 h, KB-85, 3 days, SRB, vehicle (DMSO), no MDR-1 inhibitor, mean of two experiments) was 41.9 nM and the IC50 ([4]; MDR1, 72 h, read-out: IC50 + 5.0 uM MDR-1 inhibitor, KB-85, 3 days, SRB, + 5.0 uM MDR-1 inhibitor (heptanenitrile), mean of two experiments) was 4.4 nM. The IC50 ([4]; MDR1, read-out: KB-8-5 (MDR1+) IC50, nM (N), KB-8-5, moderate MDR1 expression, Table 3) was 63.3 ± 29 nM, the “resistance of KB-8-5 cells” value ([4]; KB-8-5 (KB-85) vs KB-3-1, in vitro) was 19 fold and 14 fold and the IC50 ([5]; 72 h, PC3MM2, prostate, 3 days, SRB staining, read-out: IC50) was 8.7 nM. For the same compound, the “% T/C on day 7” value ([6]; paclitaxel 60 mg/kg IV) was 16** %, the “% T/C on day 12” value ([6]; paclitaxel 60 mg/kg IV) was 4** % and the “Activity in nude mice animal model (% T/C @ MTD on days 11-15) LOX” value [6] was 4%. For the same compound, the IC50 ([7]; Panc1, pancreatic, 3 days, SRB staining, read-out: IC50) was 28.9 nM, the IC50 ([8]; S1-M1-3.2, MXR over-expression, Table 5) was 108 ± 88 nM and the “% T/C on day 6” value ([9]; paclitaxel 60 mg/kg IV) was 63** %. For the same compound, the “% T/C on day 14” value ([9]; paclitaxel 60 mg/kg IV) was 86%, the IC50 ([10]; HCT-15, colon, SRB staining, read-out: IC50) was 438 ± 248 nM and the IC50 ([10]; HCT-15, SRB, + 5.0 uM MDR-1 inhibitor (heptanenitrile of Table 2), read-out: IC50 + 5.0 uM MDR-1 inhibitor) was 5 nM. For the same compound, the IC50 ([10]; HCT-15, SRB, vehicle control (DMSO), no MDR-1 inhibitor, read-out: IC50) was 479 nM and the IC50 ([11]; Moser, colon, 3 days, SRB staining, read-out: IC50) was 1590 ± 1990 nM.
For `CN[C@H](C(=O)N[C@H](C(=O)N(C)[C@H](/C=C(\C)C(=O)O)C(C)C)C(C)(C)C)C(C)(C)c1ccccc1` [Example 129, N,β,β-trimethyl-L-phenylalanyl-N^1-[(1S,2E)-3-carboxy-1-isopropylbut-2-enyl]-N^1,3-dimethyl-L-valinamide], the “% T/C on day 6” value ([1]; Example 129 1.25 mg/kg IV) was 32** %, the “% T/C on day 9” value ([1]; Example 129 1.25 mg/kg IV) was 19** % and the “% T/C on day 13” value ([1]; Example 129 1.25 mg/kg IV) was 9** %. For the same compound, the “% T/C on day 16” value ([1]; Example 129 1.25 mg/kg IV) was 10** %, the “% T/C on day 20” value ([1]; Example 129 1.25 mg/kg IV) was 7** % and the IC50 ([2]; A549, 72 h) was 1.1 ± 0.5 nM. The “resistance of A549.EpoB40 cells” value [3] was 0.6 fold, the “RR, relative resistance” value [4] was 2.4 and the “Ratio KB85/KB” value [4] was 2.4. The “resistance of KB-8-5 cells” value [4] was 2.4-5 fold, the IC50 ([4]; MDR1, 72 h) was 1.9 nM and the IC50 ([4]; MDR1, 72 h, read-out: IC50 + 5.0 uM MDR-1 inhibitor) was 1.4 nM. The IC50 ([4]; MDR1, read-out: KB-8-5 (MDR1+) IC50, nM (N)) was 2.3 nM, the IC50 ([5]; PC3MM2, 72 h) was 1.9 ± 0.1 nM and the “inhibition of growth of Lox melanoma xenografts” value ([6]; 2 mg/kg oral gavage days 1,5,9) was 63%. The “inhibition of growth of Lox melanoma xenografts” value ([6]; 3 mg/kg oral gavage days 1,5,9) was 97%, the weight loss ([6]; 2 and 3 mg/kg oral gavage days 1,5,9) was “less than 10%” and the “growth inhibition of melanoma Lox tumors” value ([6]; IV in saline, days 1, 5, 9 post-staging, 0.5-1 mg/kg, tumors 1-2 gram) was > 95%. For the same compound, the maximum effective dose [6, 12] was ~1.6 mg/kg, the minimum effective dose [6, 12] was “approximately 200 μg/kg” and the “% T/C on day 7” value ([6]; Example 129 1.6 mg/kg IV) was 12** %. The “% T/C on day 12” value ([6]; Example 129 1.6 mg/kg IV) was 2** %, the “Activity in nude mice animal model (% T/C @ MTD on days 11-15) LOX” value [6] was 2.5% and the IC50 [7] was 2.9 ± 0.1 nM. For the same compound, the IC50 [8] was 4.8 ± 2.1 nM, the “RR, relative resistance” value ([8]; IC50 S1-M1-3.2 / IC50 S1) was 1.3 and the “% T/C on day 6” value ([9]; Example 129 1.6 mg/kg IV) was 25** %. For the same compound, the “% T/C on day 14” value ([9]; Example 129 1.6 mg/kg IV) was 16%, the “% T/C on day 21” value ([9]; Example 129 1.6 mg/kg IV) was 47** % and the IC50 ([10]; HCT-15, colon, SRB staining) was 4.2 ± 2.5 nM. For the same compound, the IC50 ([10]; HCT-15, SRB, vehicle control (DMSO), no MDR-1 inhibitor) was 2.2 nM, the IC50 ([10]; read-out: IC50 + 5.0 uM MDR-1 inhibitor, HCT-15, SRB, + 5.0 uM MDR-1 inhibitor (heptanenitrile of Table 2)) was 0.5 nM and the IC50 [11] was 5.3 ± 4.1 nM.
